Source: patent US9452986B2, “6-heteroaryloxy- or 6-aryloxy-quinoline-2-carboxamides and method of use” (AbbVie Inc., priority 2014, dated 2016)

These compounds were tested against recombinant human Nav1.7 (Homo sapiens (Human), UniProt Q15858) (assay: FRET-based membrane potential assay, recombinant human sodium channel Nav1.7). Conditions: HEK293 cells stably expressing recombinant human Nav1.7; veratridine + scorpion venom depolarization; read-out: FRET-Membrane Potential Nav1.7 IC50.
Type: cell-based
Outline: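 Channel activation used veratridine at its EC80, set by a dilution curve each experiment, together with Leiurus scorpion venom, added 3 min after compound. Membrane-potential ratio signals from FLIPR Tetra in HEPES-buffered HBSS were fitted to a four-parameter Hill equation for percent inhibition and IC50.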

recombinant human Nav1.7, sequence (Q15858 whole entry): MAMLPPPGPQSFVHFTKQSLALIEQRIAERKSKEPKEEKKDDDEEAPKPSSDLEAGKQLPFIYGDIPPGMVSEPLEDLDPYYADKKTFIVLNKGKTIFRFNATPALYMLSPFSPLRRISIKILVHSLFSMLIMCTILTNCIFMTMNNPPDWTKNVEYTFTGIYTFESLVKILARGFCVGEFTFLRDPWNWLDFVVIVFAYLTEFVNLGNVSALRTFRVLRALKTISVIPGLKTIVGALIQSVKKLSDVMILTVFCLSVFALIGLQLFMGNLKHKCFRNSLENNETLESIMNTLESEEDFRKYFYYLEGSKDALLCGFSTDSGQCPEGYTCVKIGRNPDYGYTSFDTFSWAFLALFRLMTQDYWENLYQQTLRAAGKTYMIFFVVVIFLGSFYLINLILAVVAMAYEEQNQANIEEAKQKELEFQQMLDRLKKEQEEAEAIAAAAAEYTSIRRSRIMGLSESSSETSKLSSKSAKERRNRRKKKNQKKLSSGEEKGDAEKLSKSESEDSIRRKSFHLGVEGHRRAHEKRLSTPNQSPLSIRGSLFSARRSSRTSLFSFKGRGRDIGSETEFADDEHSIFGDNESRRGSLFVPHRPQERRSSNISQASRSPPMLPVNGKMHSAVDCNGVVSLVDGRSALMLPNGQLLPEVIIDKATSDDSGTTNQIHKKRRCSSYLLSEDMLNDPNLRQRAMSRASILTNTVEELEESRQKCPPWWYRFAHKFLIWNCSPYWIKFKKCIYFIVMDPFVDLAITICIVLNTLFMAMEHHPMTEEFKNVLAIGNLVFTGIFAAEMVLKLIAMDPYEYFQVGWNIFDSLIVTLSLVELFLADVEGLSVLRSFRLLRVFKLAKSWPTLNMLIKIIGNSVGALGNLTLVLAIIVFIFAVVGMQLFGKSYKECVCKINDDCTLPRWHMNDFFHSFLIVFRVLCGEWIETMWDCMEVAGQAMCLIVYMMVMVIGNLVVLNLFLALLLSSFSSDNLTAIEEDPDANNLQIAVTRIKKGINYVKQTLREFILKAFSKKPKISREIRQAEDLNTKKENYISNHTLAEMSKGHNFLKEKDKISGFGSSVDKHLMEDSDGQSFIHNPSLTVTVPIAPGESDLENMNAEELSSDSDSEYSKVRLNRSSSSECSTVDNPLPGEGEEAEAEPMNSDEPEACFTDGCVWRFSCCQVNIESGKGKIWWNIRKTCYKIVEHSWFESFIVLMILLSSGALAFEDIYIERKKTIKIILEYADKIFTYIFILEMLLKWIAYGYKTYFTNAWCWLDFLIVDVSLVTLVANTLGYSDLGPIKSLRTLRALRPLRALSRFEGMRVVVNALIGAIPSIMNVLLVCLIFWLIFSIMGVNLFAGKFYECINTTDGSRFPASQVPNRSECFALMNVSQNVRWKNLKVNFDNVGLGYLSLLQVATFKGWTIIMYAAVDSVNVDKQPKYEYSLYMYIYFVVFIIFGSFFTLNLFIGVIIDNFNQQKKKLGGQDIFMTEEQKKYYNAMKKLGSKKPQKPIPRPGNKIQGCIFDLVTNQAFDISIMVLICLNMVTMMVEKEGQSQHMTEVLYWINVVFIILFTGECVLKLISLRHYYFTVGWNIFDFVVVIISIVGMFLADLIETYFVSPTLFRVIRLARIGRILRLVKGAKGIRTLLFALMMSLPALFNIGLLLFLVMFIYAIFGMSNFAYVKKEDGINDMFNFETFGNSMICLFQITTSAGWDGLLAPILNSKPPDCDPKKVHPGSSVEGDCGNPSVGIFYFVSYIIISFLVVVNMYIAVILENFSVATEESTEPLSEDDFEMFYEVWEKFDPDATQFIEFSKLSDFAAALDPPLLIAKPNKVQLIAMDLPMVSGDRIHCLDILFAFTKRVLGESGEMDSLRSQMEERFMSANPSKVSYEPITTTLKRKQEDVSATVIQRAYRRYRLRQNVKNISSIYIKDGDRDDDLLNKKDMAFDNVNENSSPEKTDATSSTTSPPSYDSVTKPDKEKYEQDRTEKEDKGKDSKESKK

Row | SMILES | IC50
1 | O=C1NC[C@@H]2CN(C(=O)c3ccc4cc(Oc5ccc(C(F)(F)F)cn5)ccc4n3)C[C@H]12 [Example 166, (3 aR,6aR)-5-[(6-{[5-(trifluoromethyl)pyridin-2-yl]oxy}quinolin-2-yl)carbonyl]hexahydropyrrolo[3,4-c]pyrrol-1(2H)-one] | 11.1 µM
2 | O=C(c1ccc2cc(Oc3ccc(C(F)(F)F)cn3)ccc2n1)N1CCC2(CCC2O)CC1 (stereo not shown) [Example 341, (1-hydroxy-7-azaspiro[3.5]non-7-yl)(6-{[5-(trifluoromethyl)pyridin-2-yl]oxy}quinolin-2-yl)methanone] | 4.23 µM
3 | O=C(c1ccc2cc(Oc3ccc(C(F)(F)F)cn3)ccc2n1)N1CCS(=O)(=O)CC1 [Example 227, (1,1-dioxidothiomorpholin-4-yl)(6-{[5-(trifluoromethyl)pyridin-2-yl]oxy}quinolin-2-yl)methanone] | 2.94 µM
4 | O=C(c1ccc2cc(Oc3ccc(C(F)(F)F)cn3)ccc2n1)N1CCN(S(=O)(=O)N2CCCCC2)CC1 [Example 184, [4-(piperidin-1-ylsulfonyl)piperazin-1-yl](6-{[5-(trifluoromethyl)pyridin-2-yl]oxy}quinolin-2-yl)methanone] | 0.923 µM
5 | N#Cc1ccc(Oc2ccc3nc(C(=O)NCCS(N)(=O)=O)ccc3c2)cc1 [Example 147, 6-(4-cyanophenoxy)-N-(2-sulfamoylethyl)quinoline-2-carboxamide] | 4.28 µM
6 | O=C(NCCC(=O)N1CCOCC1)c1ccc2cc(Oc3ccc(C(F)(F)F)cn3)ccc2n1 [Example 444, N-[3-(morpholin-4-yl)-3-oxopropyl]-6-{[5-(trifluoromethyl)pyridin-2-yl]oxy}quinoline-2-carboxamide] | 1.4 µM
7 | O=C(c1ccc2cc(Oc3ccc(C(F)(F)F)cn3)ccc2n1)N1CC[C@@H](O)C1 [Example 282, [(3R)-3-hydroxypyrrolidin-1-yl](6-{[5-(trifluoromethyl)pyridin-2-yl]oxy}quinolin-2-yl)methanone] | 8.52 µM
8 | O=C(c1ccc2cc(Oc3ccc(C(F)(F)F)cn3)ccc2n1)N1CCN(S(=O)(=O)C2CCOCC2)CC1 [Example 383, [4-(tetrahydro-2H-pyran-4-ylsulfonyl)piperazin-1-yl](6-{[5-(trifluoromethyl)pyridin-2-yl]oxy}quinolin-2-yl)methanone] | > 20 µM
9 | CC(C)(O)CNC(=O)c1ccc2cc(Oc3ccc(C(F)(F)F)nc3)ccc2n1 [Example 471, N-(2-hydroxy-2-methylpropyl)-6-{[6-(trifluoromethyl)pyridin-3-yl]oxy}quinoline-2-carboxamide] | 2.4 µM
10 | O=C(c1ccc2cc(Oc3ccc(C(F)(F)F)cn3)ccc2n1)N1CCN(Cc2ccccn2)CC1 [Example 308, [4-(pyridin-2-ylmethyl)piperazin-1-yl](6-{[5-(trifluoromethyl)pyridin-2-yl]oxy}quinolin-2-yl)methanone] | 3.07 µM
11 | CCN(CC)C(=O)CCNC(=O)c1ccc2cc(Oc3ccc(C(F)(F)F)cn3)ccc2n1 [Example 453, N-[3-(diethylamino)-3-oxopropyl]-6-{[5-(trifluoromethyl)pyridin-2-yl]oxy}quinoline-2-carboxamide] | 0.405 µM
12 | O=C(c1ccc2cc(Oc3ccc(C(F)(F)F)cn3)ccc2n1)N1CCCCCC1 [Example 238, azepan-1-yl(6-{[5-(trifluoromethyl)pyridin-2-yl]oxy}quinolin-2-yl)methanone] | 1.54 µM
13 | N#Cc1ccc(Oc2ccc3nc(C(=O)NC4CCCOC4)ccc3c2)cc1 (stereo not shown) [Example 116, 6-(4-cyanophenoxy)-N-(tetrahydro-2H-pyran-3-yl)quinoline-2-carboxamide] | 1.03 µM
14 | COCC1(F)CCN(C(=O)c2ccc3cc(Oc4ccc(C(F)(F)F)cn4)ccc3n2)C1 (stereo not shown) [Example 487, [3-fluoro-3-(methoxymethyl)pyrrolidin-1-yl](6-{[5-(trifluoromethyl)pyridin-2-yl]oxy}quinolin-2-yl)methanone] | 0.919 µM
15 | O=C(N[C@@H]1CCN(C(=O)c2ccc3cc(Oc4ccc(C(F)(F)F)cn4)ccc3n2)C1)C1CC1 [Example 439, N-{(3R)-1-[(6-{[5-(trifluoromethyl)pyridin-2-yl]oxy}quinolin-2-yl)carbonyl]pyrrolidin-3-yl}cyclopropanecarboxamide] | 5.86 µM
16 | CO[C@@H]1CN(C(=O)c2ccc3cc(Oc4ccc(C(F)(F)F)cn4)ccc3n2)C[C@H]1O (relative stereo) [Example 305, [trans-3-hydroxy-4-methoxypyrrolidin-1-yl](6-{[5-(trifluoromethyl)pyridin-2-yl]oxy}quinolin-2-yl)methanone] | 13.6 µM
17 | O=C(NCC1CNC1)c1ccc2cc(Oc3ccc(C(F)(F)F)cn3)ccc2n1 [Example 470, N-(azetidin-3-ylmethyl)-6-{[5-(trifluoromethyl)pyridin-2-yl]oxy}quinoline-2-carboxamide] | 6.6 µM
18 | O=C1CC(NC(=O)c2ccc3cc(Oc4ccc(C(F)F)cn4)ccc3n2)C1 [Example 592, 6-{[5-(difluoromethyl)pyridin-2-yl]oxy}-N-(3-oxocyclobutyl)quinoline-2-carboxamide] | 3.44 µM
19 | CS(=O)(=O)NC1CCN(C(=O)c2ccc3cc(Oc4ccc(C(F)(F)F)cn4)ccc3n2)CC1 [Example 408, N-{1-[(6-{[5-(trifluoromethyl)pyridin-2-yl]oxy}quinolin-2-yl)carbonyl]piperidin-4-yl}methanesulfonamide] | > 20 µM
20 | O=C(c1ccc2cc(Oc3ccc(C(F)(F)F)cn3)ccc2n1)N1C[C@H](O)C[C@H]1CO [Example 300, [(2S,4R)-4-hydroxy-2-(hydroxymethyl)pyrrolidin-1-yl](6-{[5-(trifluoromethyl)pyridin-2-yl]oxy}quinolin-2-yl)methanone] | > 20 µM
21 | CNC(=O)CNC(=O)c1ccc2cc(Oc3ccc(C#N)cc3)ccc2n1 [Example 145, 6-(4-cyanophenoxy)-N-[2-(methylamino)-2-oxoethyl]quinoline-2-carboxamide] | 3.09 µM
22 | O=C(NN1CCOCC1)c1ccc2cc(Oc3ccc(C(F)(F)F)cn3)ccc2n1 [Example 281, N-(morpholin-4-yl)-6-{[5-(trifluoromethyl)pyridin-2-yl]oxy}quinoline-2-carboxamide] | 1.28 µM
23 | CS(=O)(=O)NC1CN(C(=O)c2ccc3cc(Oc4ccc(C(F)(F)F)cn4)ccc3n2)C1 [Example 428, N-{1-[(6-{[5-(trifluoromethyl)pyridin-2-yl]oxy}quinolin-2-yl)carbonyl]azetidin-3-yl}methanesulfonamide] | 10.3 µM
24 | O=C(c1ccc2cc(Oc3ccc(C(F)(F)F)cn3)ccc2n1)N1CCNCC(F)C1 (stereo not shown) [Example 406, (6-fluoro-1,4-diazepan-1-yl)(6-{[5-(trifluoromethyl)pyridin-2-yl]oxy}quinolin-2-yl)methanone] | 1.06 µM
25 | O=C(c1ccc2cc(Oc3ccc(C(F)(F)F)cn3)ccc2n1)N1CCn2cnnc2C1 [Example 170, 5,6-dihydro[1,2,4]triazolo[4,3-a]pyrazin-7(8H)-yl(6-{[5-(trifluoromethyl)pyridin-2-yl]oxy}quinolin-2-yl)methanone] | 8.87 µM
26 | N#Cc1ccc(Oc2ccc3nc(C(=O)NCc4ncco4)ccc3c2)cc1 [Example 144, 6-(4-cyanophenoxy)-N-(1,3-oxazol-2-ylmethyl)quinoline-2-carboxamide] | 0.832 µM
27 | O=C(c1ccc2cc(Oc3ccc(C(F)(F)F)cn3)ccc2n1)N1CCCC(F)(F)C1 [Example 312, (3,3-difluoropiperidin-1-yl)(6-{[5-(trifluoromethyl)pyridin-2-yl]oxy}quinolin-2-yl)methanone] | 6.93 µM

Same assay, conditions: read-out: FRET-Membrane Potential Nav1.7 IC50

Row | SMILES | IC50
28 | CO[C@@H]1CCN(C(=O)c2ccc3cc(Oc4ccc(C(F)(F)F)cn4)ccc3n2)C1 [Example 588, [(3R)-3-methoxypyrrolidin-1-yl](6-{[5-(trifluoromethyl)pyridin-2-yl]oxy}quinolin-2-yl)methanone] | 3.64 µM
29 | CN(C)CCCNC(=O)c1ccc2cc(Oc3ccc(C#N)cc3)ccc2n1 [Example 85, 6-(4-cyanophenoxy)-N-[3-(dimethylamino)propyl]quinoline-2-carboxamide] | 0.238 µM
30 | N#Cc1ccc(Oc2ccc3nc(C(=O)N[C@@H]4CCS(=O)(=O)C4)ccc3c2)cc1 [Example 160, 6-(4-cyanophenoxy)-N-[(3R)-1,1-dioxidotetrahydrothiophen-3-yl]quinoline-2-carboxamide] | 0.71 µM
31 | O=C(c1ccc2cc(Oc3ccc(C(F)(F)F)cn3)ccc2n1)N1CCN2C[C@@H](F)C[C@H]2C1 [Example 359, [(7S,8aS)-7-fluorohexahydropyrrolo[1,2-a]pyrazin-2(1H)-yl](6-{[5-(trifluoromethyl)pyridin-2-yl]oxy}quinolin-2-yl)methanone] | 4.71 µM
32 | O=C(NCCN1CCCC1=O)c1ccc2cc(Oc3ccc(C(F)(F)F)cn3)ccc2n1 [Example 337, N-[2-(2-oxopyrrolidin-1-yl)ethyl]-6-{[5-(trifluoromethyl)pyridin-2-yl]oxy}quinoline-2-carboxamide] | 1.66 µM
33 | O=C(NC1CS(=O)(=O)CC1O)c1ccc2cc(Oc3ccc(C(F)(F)F)cn3)ccc2n1 (stereo not shown) [Example 285, N-(4-hydroxy-1,1-dioxidotetrahydrothiophen-3-yl)-6-{[5-(trifluoromethyl)pyridin-2-yl]oxy}quinoline-2-carboxamide] | 0.774 µM
34 | N#Cc1ccc(Oc2ccc3nc(C(=O)N4CCc5ccccc54)ccc3c2)cc1 [Example 111, 4-{[2-(2,3-dihydro-1H-indol-1-ylcarbonyl)quinolin-6-yl]oxy}benzonitrile] | > 20 µM
35 | CNC(=O)[C@@H]1CCCN1C(=O)c1ccc2cc(Oc3ccc(C(F)F)cn3)ccc2n1 [Example 455, 1-[(6-{[5-(difluoromethyl)pyridin-2-yl]oxy}quinolin-2-yl)carbonyl]-N-methyl-L-prolinamide] | > 20 µM
36 | O=C(Nc1ncns1)c1ccc2cc(Oc3ccccn3)ccc2n1 [Example 80, 6-(pyridin-2-yloxy)-N-(1,2,4-thiadiazol-5-yl)quinoline-2-carboxamide] | > 20 µM
37 | CC(CO)NC(=O)c1ccc2cc(Oc3ccc(C#N)cc3)ccc2n1 (stereo not shown) [Example 127, 6-(4-cyanophenoxy)-N-(1-hydroxypropan-2-yl)quinoline-2-carboxamide] | 4.07 µM
